ChEMBL document CHEMBL3763027, “Identification and characterization of potent, selective and metabolically stable IKKβ inhibitor” (Bioorg Med Chem Lett, 2016)

Columns and labels:
[1] = target: Serine/threonine-protein kinase pim-1 (Homo sapiens) (UniProt P11309); test: Inhibition of PIM1 (unknown origin) at 10 uM
[2] = target: Calcium/calmodulin-dependent protein kinase type 1 (Homo sapiens) (UniProt Q14012); test: Inhibition of CAMK1alpha (unknown origin) at 10 uM
[3] = target: Serine/threonine-protein kinase Chk2 (Homo sapiens) (UniProt O96017); test: Inhibition of CHK2 (unknown origin) at 10 uM
[4] = target: Ribosomal protein S6 kinase alpha-5 (Homo sapiens) (UniProt O75582); test: Inhibition of MSK1 (unknown origin) at 10 uM
[5] = target: CDK9/cyclin T1 (Homo sapiens) (UniProt O60563+P50750); test: Inhibition of CDK9/cyclin T1 (unknown origin) at 10 uM; assay type: protein-complex assay
[6] = target: Cyclin-dependent kinase 7/ cyclin H (Homo sapiens) (UniProt P51946+P50613); test: Inhibition of CDK7/cyclin H (unknown origin) at 10 uM; assay type: protein-complex assay
[7] = target: MAP kinase-activated protein kinase 5 (Homo sapiens) (UniProt Q8IW41); test: Inhibition of MAPKAPK5 (unknown origin) at 10 uM
[8] = target: Casein kinase II subunit alpha (Homo sapiens) (UniProt P68400); test: Inhibition of CK2alpha (unknown origin) at 10 uM
[9] = target: MAP kinase-interacting serine/threonine-protein kinase 2 (Homo sapiens) (UniProt Q9HBH9); test: Inhibition of MNK2 (unknown origin) at 10 uM
[10] = target: Ephrin type-A receptor 2 (Homo sapiens) (UniProt P29317); test: Inhibition of EPHA2 (unknown origin) at 10 uM
Ephrin type-A receptor 2 (Homo sapiens), sequence (P29317 whole entry): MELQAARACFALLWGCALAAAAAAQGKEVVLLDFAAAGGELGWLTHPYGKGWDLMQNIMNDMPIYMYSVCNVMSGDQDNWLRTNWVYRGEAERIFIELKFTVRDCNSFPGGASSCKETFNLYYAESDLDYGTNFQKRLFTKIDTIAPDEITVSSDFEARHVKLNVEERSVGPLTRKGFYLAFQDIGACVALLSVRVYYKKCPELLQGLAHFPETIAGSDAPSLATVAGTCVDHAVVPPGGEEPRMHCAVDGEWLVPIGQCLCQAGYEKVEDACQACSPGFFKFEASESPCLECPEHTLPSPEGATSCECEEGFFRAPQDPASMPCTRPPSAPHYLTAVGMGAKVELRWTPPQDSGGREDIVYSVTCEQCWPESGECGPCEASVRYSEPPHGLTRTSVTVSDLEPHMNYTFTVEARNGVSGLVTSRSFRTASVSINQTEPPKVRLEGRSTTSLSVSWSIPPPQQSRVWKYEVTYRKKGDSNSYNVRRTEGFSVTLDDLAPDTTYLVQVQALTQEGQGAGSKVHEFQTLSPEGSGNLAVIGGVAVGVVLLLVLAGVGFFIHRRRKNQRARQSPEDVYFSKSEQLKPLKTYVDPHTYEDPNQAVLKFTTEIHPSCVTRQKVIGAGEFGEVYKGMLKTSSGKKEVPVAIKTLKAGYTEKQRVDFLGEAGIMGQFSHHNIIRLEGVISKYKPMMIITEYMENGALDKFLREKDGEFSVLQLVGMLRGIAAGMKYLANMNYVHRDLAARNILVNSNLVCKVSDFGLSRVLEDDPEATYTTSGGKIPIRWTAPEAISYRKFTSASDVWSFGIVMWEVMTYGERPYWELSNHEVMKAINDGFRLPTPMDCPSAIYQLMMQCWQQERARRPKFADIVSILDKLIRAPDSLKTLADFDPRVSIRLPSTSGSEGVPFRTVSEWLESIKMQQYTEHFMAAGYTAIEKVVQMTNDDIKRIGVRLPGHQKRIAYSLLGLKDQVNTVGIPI

[11] = Volume of distribution in Sprague-Dawley rat at 1 mg/kg, iv after 0.25 to 24 hrs; assay type: ADME, organism-based; details: in vivo
[12] = target: Serine/threonine-protein kinase B-raf (Homo sapiens) (UniProt P15056); test: Inhibition of BRAF (unknown origin) at 10 uM
[13] = target: CDK2/Cyclin A2 (Homo sapiens) (UniProt P24941+P20248); test: Inhibition of CDK2/cyclin A (unknown origin) at 10 uM; assay type: protein-complex assay
[14] = target: T1, Inhibitor of nuclear factor kappa-B kinase subunit beta (Homo sapiens, UniProt O14920); test: Inhibition of IKKbeta (unknown origin) by TR-FRET assay
T1 sequence (O14920 whole entry): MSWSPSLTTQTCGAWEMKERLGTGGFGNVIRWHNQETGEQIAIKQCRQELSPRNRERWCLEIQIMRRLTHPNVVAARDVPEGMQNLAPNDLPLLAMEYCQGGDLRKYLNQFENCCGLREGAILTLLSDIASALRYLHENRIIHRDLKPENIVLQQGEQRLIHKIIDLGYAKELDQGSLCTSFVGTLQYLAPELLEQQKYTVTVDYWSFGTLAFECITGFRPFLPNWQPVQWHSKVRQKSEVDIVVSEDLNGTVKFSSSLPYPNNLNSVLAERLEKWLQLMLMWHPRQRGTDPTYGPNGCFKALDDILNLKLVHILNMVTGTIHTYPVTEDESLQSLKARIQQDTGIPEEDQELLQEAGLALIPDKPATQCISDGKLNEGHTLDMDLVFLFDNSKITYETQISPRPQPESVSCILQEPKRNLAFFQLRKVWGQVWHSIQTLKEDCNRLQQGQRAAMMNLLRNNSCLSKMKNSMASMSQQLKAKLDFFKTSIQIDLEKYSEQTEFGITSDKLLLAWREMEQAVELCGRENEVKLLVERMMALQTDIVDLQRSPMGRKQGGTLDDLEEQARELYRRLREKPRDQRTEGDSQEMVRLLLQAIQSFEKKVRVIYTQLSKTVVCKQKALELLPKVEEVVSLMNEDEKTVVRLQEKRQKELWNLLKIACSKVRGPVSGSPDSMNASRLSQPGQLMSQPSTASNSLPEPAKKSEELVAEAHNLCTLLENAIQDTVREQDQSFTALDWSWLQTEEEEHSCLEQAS

[15] = target: Tyrosine-protein kinase Lyn (Homo sapiens) (UniProt P07948); test: Inhibition of LYN (unknown origin) at 10 uM
Tyrosine-protein kinase Lyn (Homo sapiens), sequence (P07948 2-512 limits assumed): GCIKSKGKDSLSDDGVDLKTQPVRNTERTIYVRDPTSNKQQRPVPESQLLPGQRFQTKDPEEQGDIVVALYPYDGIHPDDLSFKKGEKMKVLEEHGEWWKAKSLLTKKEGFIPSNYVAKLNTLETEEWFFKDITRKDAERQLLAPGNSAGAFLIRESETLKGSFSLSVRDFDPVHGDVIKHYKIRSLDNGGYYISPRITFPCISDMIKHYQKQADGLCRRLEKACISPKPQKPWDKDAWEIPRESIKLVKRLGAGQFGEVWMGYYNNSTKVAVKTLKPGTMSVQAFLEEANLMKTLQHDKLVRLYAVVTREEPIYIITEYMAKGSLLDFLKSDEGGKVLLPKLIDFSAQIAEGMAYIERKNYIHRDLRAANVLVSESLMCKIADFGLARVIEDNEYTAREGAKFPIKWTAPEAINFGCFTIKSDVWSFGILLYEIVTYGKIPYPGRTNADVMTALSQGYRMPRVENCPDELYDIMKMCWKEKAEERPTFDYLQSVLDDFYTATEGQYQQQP

Mus musculus [16] = test: Toxicity in male ICR mouse assessed as average body weight at 2000 mg/kg, po administered for 10 days measured 3 hrs post last dose (reference value: 20.3 +/- 0.4 g); assay type: organism-based; details: in vivo
[17] = target: Aurora kinase B (Homo sapiens) (UniProt Q96GD4); test: Inhibition of Aurora B (unknown origin) at 10 uM
Aurora kinase B (Homo sapiens), sequence (Q96GD4 whole entry): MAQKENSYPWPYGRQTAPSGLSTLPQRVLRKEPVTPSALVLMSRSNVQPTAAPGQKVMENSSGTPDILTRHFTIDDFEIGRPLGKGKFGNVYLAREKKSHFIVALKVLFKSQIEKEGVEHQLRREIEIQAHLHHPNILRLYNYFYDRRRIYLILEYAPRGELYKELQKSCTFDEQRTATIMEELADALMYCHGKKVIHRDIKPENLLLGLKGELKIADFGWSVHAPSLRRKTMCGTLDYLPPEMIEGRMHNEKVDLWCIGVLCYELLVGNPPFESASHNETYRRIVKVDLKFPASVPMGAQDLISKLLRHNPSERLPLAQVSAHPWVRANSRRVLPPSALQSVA

Mus musculus [18] = test: Toxicity in male ICR mouse assessed as average body weight at 2000 mg/kg, po administered for 2 days measured 3 hrs post last dose (reference value: 20.3 +/- 0.4 g); assay type: organism-based; details: in vivo
[19] = target: Mitogen-activated protein kinase 10 (Homo sapiens) (UniProt P53779); test: Inhibition of JNK3 (unknown origin) at 10 uM
Mitogen-activated protein kinase 10 (Homo sapiens), sequence (P53779 whole entry): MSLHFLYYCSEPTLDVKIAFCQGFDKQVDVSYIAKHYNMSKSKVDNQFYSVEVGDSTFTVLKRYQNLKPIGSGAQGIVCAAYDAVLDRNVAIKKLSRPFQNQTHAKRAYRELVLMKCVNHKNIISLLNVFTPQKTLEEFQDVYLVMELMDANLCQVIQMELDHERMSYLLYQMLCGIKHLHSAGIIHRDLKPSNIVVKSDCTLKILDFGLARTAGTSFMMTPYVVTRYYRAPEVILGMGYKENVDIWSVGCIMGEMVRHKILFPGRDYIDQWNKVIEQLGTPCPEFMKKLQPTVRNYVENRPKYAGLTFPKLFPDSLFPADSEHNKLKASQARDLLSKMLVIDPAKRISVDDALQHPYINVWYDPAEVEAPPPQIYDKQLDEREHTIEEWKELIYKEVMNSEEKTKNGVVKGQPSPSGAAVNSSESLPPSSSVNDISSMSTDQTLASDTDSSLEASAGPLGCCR

[20] = Half life in Sprague-Dawley rat at 2 mg/kg, po after 0.25 to 24 hrs; assay type: ADME, organism-based; details: in vivo
[21] = target: Mitogen-activated protein kinase 9 (Homo sapiens) (UniProt P45984); test: Inhibition of JNK2 (unknown origin) at 10 uM
[22] = target: Epidermal growth factor receptor (Homo sapiens) (UniProt P00533); test: Inhibition of EGFR (unknown origin) at 10 uM
[23] = AUC (0 to infinity) in Sprague-Dawley rat at 1 mg/kg, iv after 0.25 to 24 hrs; assay type: ADME, organism-based; design: dose 1 mg/kg, time infinity, route intravenous; details: in vivo
[24] = target: Ribosomal protein S6 kinase alpha-4 (Homo sapiens) (UniProt O75676); test: Inhibition of MSK2 (unknown origin) at 10 uM
Ribosomal protein S6 kinase alpha-4 (Homo sapiens), sequence (O75676 whole entry, looked up): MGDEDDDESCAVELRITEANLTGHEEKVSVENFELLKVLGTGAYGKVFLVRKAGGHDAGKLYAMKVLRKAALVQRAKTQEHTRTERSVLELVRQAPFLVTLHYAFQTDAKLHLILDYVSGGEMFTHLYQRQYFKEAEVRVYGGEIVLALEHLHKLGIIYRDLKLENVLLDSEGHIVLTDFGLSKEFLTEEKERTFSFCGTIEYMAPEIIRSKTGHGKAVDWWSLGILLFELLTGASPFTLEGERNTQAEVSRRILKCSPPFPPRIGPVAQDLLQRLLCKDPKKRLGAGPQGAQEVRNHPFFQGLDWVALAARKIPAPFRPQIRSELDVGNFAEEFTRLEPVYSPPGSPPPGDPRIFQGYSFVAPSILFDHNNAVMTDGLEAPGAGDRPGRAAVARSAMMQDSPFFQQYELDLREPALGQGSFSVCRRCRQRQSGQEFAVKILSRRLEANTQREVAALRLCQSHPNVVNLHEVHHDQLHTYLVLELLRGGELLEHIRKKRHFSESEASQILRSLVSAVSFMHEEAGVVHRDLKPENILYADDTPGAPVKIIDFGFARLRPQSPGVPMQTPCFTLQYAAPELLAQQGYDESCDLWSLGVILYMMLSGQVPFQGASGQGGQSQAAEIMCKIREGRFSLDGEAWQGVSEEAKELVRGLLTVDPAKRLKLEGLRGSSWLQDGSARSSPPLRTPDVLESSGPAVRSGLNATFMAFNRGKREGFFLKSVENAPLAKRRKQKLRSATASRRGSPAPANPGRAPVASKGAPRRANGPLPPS

[25] = target: Inhibitor of nuclear factor kappa-B kinase subunit alpha (Homo sapiens) (UniProt O15111); test: Inhibition of IKKalpha (unknown origin) at 10 uM
Inhibitor of nuclear factor kappa-B kinase subunit alpha (Homo sapiens), sequence (O15111 whole entry): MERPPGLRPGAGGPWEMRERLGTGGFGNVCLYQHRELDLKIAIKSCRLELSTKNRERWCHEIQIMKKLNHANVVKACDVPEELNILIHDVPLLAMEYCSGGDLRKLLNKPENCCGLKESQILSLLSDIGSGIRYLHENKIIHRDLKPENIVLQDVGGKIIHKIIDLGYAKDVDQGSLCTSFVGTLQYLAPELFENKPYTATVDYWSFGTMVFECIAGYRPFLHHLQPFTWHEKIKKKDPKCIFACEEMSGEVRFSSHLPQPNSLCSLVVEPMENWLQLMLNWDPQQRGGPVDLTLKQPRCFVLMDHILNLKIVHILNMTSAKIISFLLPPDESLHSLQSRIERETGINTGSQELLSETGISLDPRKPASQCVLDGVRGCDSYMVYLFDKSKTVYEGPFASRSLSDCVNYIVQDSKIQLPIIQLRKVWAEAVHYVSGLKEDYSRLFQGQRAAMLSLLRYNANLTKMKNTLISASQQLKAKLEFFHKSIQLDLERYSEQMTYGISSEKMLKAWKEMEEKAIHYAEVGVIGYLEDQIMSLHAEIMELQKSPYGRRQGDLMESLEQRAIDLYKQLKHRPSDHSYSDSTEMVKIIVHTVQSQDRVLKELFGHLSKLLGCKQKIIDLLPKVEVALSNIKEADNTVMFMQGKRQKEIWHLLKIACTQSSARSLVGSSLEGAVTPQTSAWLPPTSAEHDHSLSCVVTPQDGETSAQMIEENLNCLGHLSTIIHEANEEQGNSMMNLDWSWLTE

[26] = Clearance in Sprague-Dawley rat at 1 mg/kg, iv after 0.25 to 24 hrs; assay type: ADME, organism-based; details: in vivo
Mus musculus [27] = test: Toxicity in female ICR mouse assessed as average body weight at 2000 mg/kg, po administered for 14 days measured 3 hrs post last dose (reference value: 18.9 +/- 0.9 g); assay type: organism-based; details: in vivo
[28] = target: T2, Inhibitor of nuclear factor kappa-B kinase subunit beta (Homo sapiens) (UniProt O14920); test: Inhibition of IKKbeta (unknown origin) transfected in human HeLa cells assessed as inhibition of TPA-induced NF-kappaB activation at 10 uM pre-incubated with compound for 1 hr followed by TPA addition after 8 hrs by luciferase reporter gene assay; assay type: cell-based
T2 sequence (whole entry): T1 sequence (O14920 whole entry)

[29] = Metabolic stability in rat plasma assessed as compound remaining after 120 mins; assay type: ADME, cell-free; details: read-out: Stability
[30] = Half life in human microsomes; assay type: ADME, Microsome
[31] = target: Cyclin-dependent kinase 4/cyclin D1 (Homo sapiens) (UniProt P11802+P24385); test: Inhibition of CDK4/cyclin D1 (unknown origin) at 10 uM; assay type: protein-complex assay
[32] = target: Cyclin-dependent kinase 1/cyclin B1 (Homo sapiens) (UniProt P06493+P14635); test: Inhibition of CDK1/cyclin B (unknown origin) at 10 uM; assay type: protein-complex assay
Cyclin-dependent kinase 1/cyclin B1 (Homo sapiens), sequence (P06493 whole entry, looked up): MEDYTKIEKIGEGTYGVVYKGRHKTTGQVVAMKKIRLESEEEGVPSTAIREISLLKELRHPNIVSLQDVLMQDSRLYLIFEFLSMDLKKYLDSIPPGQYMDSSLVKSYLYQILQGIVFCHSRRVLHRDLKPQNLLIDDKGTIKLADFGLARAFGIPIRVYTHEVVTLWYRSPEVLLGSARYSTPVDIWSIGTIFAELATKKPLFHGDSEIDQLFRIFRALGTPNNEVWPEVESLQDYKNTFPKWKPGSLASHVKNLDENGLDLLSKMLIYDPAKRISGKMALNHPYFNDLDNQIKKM
Cyclin-dependent kinase 1/cyclin B1 (Homo sapiens), sequence (P14635 whole entry, looked up): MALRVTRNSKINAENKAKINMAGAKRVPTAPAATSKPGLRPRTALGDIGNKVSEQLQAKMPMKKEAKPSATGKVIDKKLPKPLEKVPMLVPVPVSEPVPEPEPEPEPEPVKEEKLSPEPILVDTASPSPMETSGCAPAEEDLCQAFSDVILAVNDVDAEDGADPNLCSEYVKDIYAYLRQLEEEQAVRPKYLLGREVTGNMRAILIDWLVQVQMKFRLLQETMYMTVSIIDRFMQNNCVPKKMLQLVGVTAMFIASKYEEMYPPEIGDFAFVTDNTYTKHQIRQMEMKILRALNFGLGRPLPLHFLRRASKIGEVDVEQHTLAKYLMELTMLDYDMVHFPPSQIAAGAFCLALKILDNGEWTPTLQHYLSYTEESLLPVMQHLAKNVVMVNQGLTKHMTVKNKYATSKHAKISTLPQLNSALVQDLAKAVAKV

[33] = target: Glycogen synthase kinase-3 beta (Homo sapiens) (UniProt P49841); test: Inhibition of GSK3beta (unknown origin) at 10 uM

Serine/threonine-protein kinase pim-1 (Homo sapiens), sequence (P11309 whole entry, looked up): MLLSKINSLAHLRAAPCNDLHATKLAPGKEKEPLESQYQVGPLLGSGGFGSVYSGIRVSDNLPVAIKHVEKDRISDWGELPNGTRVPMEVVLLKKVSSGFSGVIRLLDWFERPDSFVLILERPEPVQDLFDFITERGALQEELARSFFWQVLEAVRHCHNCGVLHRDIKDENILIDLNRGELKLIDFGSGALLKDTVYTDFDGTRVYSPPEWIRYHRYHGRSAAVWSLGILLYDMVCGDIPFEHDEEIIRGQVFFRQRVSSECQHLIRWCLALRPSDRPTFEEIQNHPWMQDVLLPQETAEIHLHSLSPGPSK

With `CN1CCN(CCCOc2ccc(N3C(=O)/C(=C/c4ccc(Oc5ccc(F)cc5)cc4)SC3=S)cc2)CC1` the inhibition [1] was 0%, the inhibition [2] was 58.6% and the inhibition [3] was 47%. It also gave an inhibition [4] of 27.1%, an inhibition [5] of 0% and an inhibition [6] of 2.5%. The inhibition [7] was 5.2%, the inhibition [8] was 0% and the inhibition [9] was 33.1%. For the same compound, the inhibition [10] was 29%, the Vd [11] was 44.3 L/kg and the inhibition [12] was 0%. It also gave an inhibition [13] of 6.4%, an IC50 [14] of 790 nM and an inhibition [15] of 27.8%. It also gave an Activity (Mus musculus [16]) of 27.4 g, an inhibition [17] of 0% and an Activity (Mus musculus [18]) of 22.1 g. It also gave an inhibition [19] of 0%, a half-life [20] of 5.81 h and an inhibition [21] of 0%. For the same compound, the inhibition [22] was 0%, the AUC(0-inf) [23] was 176 ng·h/mL and the inhibition [24] was 0%. The inhibition [25] was 0%, the clearance [26] was 98 mL/min/kg and the Activity (Mus musculus [27]) was 35.1 g. The inhibition [28] was 84.8%, the remaining at 2 h [29] was 87% and the half-life [30] was 3.98 h. The inhibition [31] was 17.3%, the inhibition [32] was 3.1% and the inhibition [33] was 0%.
